Measurements: US4160828A, “Analgesic phosphinyl compounds and compositions” (Hoechst Aktiengesellschaft, priority 1978, dated 1979)

Experiments:
[1] = Analgesic activity / overall physiological activity, in words; format: in vivo; conditions: test not specified; versus Comparison Compound C
Experimental: (§1) The physiological activity of the compounds prepared in the Examples has been tested using various test methods and compared with the activities of various structurally similar commercial products. In each case, testing was carried out with equimolar quantities of the test compounds.
The analgesic activity was determined by the Writhing Test in the mouse using the method of E. Siegmund et al (Proceed. Soc. --Exp. Biol. Med. 95(1957) Page 729) and by the Randall-Selitto Test in the rat using the method of Randall and Selitto (Arch. Int. Pharmacodyn. 111(1957) Page 409).
(§2) The anti-inflammatory effect was measured by the carrageenin oedema test on rat paws using the method of Winter et al (Proceed. Soc. Exp. Biol. Med. 111(1962) Page 544) and in test series III) and also by the adjuvant arthritis test in the rat according to Pearson et al (Arthrit. Rheumat. 2(1959) page 440).

[2] = tested on: mice; experiment: Toxicity by oral administration to mice; format: in vivo, mouse; conditions: versus Comparison Compound of the same test series
Experimental: as §1
The toxicity was measured by oral administration to 50 mice.

[3] = tested on: rat; experiment: Adjuvant arthritis test in the rat (Pearson et al), anti-inflammatory effect; format: in vivo; conditions: sub-chronic; for Adjuvant arthritis: test series III, equimolar quantities; for adjuvant arthritis test compared with comparison compound: versus Comparison Compound C
Experimental: as §2, with “The physiological activity of the compounds prepared in the Examples has been tested using various test methods and compared with the activities of various structurally similar commercial products. In each case, testing was carried out with equimolar quantities of the test compounds. The” for “The”

[4] = tested on: carrageenin oedema on rat paws; experiment: Carrageenin oedema test on rat paws (Winter et al), anti-inflammatory effect; format: in vivo; conditions: rat paw; versus Comparison Compound of the same test series
Experimental: as §2, with “The physiological activity of the compounds prepared in the Examples has been tested using various test methods and compared with the activities of various structurally similar commercial products. In each case, testing was carried out with equimolar quantities of the test compounds. The” for “The”

[5] = tested on: mouse; experiment: Writhing Test in the mouse (Siegmund et al), analgesic activity; format: in vivo; conditions: versus Comparison Compound of the same test series
Experimental: (§3) The physiological activity of the compounds prepared in the Examples has been tested using various test methods and compared with the activities of various structurally similar commercial products. In each case, testing was carried out with equimolar quantities of the test compounds. The analgesic activity was determined by the Writhing Test in the mouse using the method of E. Siegmund et al (Proceed. Soc. --Exp. Biol. Med. 95(1957) Page 729) and by the Randall-Selitto Test in the rat using the method of Randall and Selitto (Arch. Int. Pharmacodyn. 111(1957) Page 409).

[6] = prior-art compound; cited from earlier work
[7] = prior-art compound; cited from earlier work; remark: listed apart in the source
[8] = tested on: rat; experiment: Randall-Selitto Test in the rat, analgesic activity; format: in vivo; conditions: versus Comparison Compound of the same test series
Experimental: as §3

Question: For `CP(C)(=O)CCCOC(=O)c1ccccc1Nc1c(C(F)(F)F)cnc2ccccc12` [Compound 1f, 3-(Dimethylphosphinyl)-propyl N-(3-trifluoromethyl-4-quinolyl)-anthranilate], which “analgesic activities compared with comparison compound” value [1] is on record?
Answer: Its value is “clearly improved over that of Comparison Compound C”.

Question: For `CP(C)(=O)CCCOC(=O)c1ccccc1Nc1cccc(C(F)(F)F)c1` [Compound 1e, Dimethylphosphinyl-propyl N-(3-trifluoromethylphenyl)-anthranilate], which “toxicity compared with comparison compound” value [2] is on record?
Answer: The value was “substantially more favourable than that of Compound C”.

Question: And the Adjuvant arthritis [3]?
Answer: Its Adjuvant arthritis is 10-25.

Question: What about the “adjuvant arthritis test compared with comparison compound” value [3] of the same compound?
Answer: The value was “considerably better than that of Comparision Compound C”.

Question: Which “toxicity compared with comparison compound” value [2] does the source give for `Cc1cccc(Nc2ccccc2C(=O)OCCCP(C)(C)=O)c1C` [Compound 1d, Dimethylphosphinyl-propyl N-(2,3-dimethylphenyl)-anthranilate] here?
Answer: Its value is “more favourable toxicity than Compound B”.

Question: And the “Carrageenin oedema test / anti-inflammatory activity compared with comparison compound” value [4]?
Answer: Its value is “more or less equivalent to these of the commercial compound”.

Question: What about the “Writhing test compared with comparison compound” value [5] of the same compound?
Answer: Its value is “substantial improvement over the Comparison Compound”.

Question: Which results are given for `CP(C)(=O)COC(=O)c1ccccc1Nc1ccnc2cc(Cl)ccc12` [Compound 2c, 3-(dimethylphosphinyl)-methyl N-(7-chloro-4-quinolyl)-anthranilate]?
Answer: Carrageenin oedema test / anti-inflammatory activity compared with comparison compound [4]: show an improvement compared with Compound A; Writhing test compared with comparison compound [5]: substantially better than the Comparison compound

Question: What does the source list for `CP(C)(=O)COC(=O)c1ccccc1Nc1ccnc2c(C(F)(F)F)cccc12` [Compound 2a, dimethylphosphinylmethyl N-(8-trifluoromethyl-4-quinolyl)-anthranilate]?
Answer: toxicity compared with comparison compound [2]: lower than that of Compound A; Writhing test compared with comparison compound [5]: substantially better than the Comparison compound

Question: Which results are given for `O=C(OCC(O)CO)c1ccccc1Nc1ccnc2cc(Cl)ccc12` (stereo not drawn) [2,3-dihydroxypropyl N-(7-chloro-4-quinolyl)-anthranilate]?
Answer: solubility in water, prior art [6]: insoluble in water; analgesic activity, prior art [7]: known to have analgesic activity

Question: For `O=C(O)c1ccccc1Nc1cccc(C(F)(F)F)c1` [Compound C, Flufenamic acid, reference compound], which Adjuvant arthritis [3] is on record?
Answer: The Adjuvant arthritis was 25-50.

Question: With `Cc1cccc(Nc2ccccc2C(=O)OCP(C)(C)=O)c1C` [Compound 1c, Dimethylphosphinyl-methyl N-(2,3-dimethylphenyl)-anthranilate] as the compound, how does the “toxicity compared with comparison compound” value [2] read?
Answer: Its value is “more favourable toxicity than Compound B”.

Question: And the “Carrageenin oedema test / anti-inflammatory activity compared with comparison compound” value [4]?
Answer: The value was “more or less equivalent to these of the commercial compound”.

Question: And the “Randall-Selitto test compared with comparison compound” value [8]?
Answer: The value was “substantial improvement over the Comparison Compound”.

Question: With `CP(C)(=O)COC(=O)c1ccccc1Nc1cccc(C(F)(F)F)c1` [Compound 1a, dimethylphosphinylmethyl N-(3-trifluoromethyl-phenyl)-anthranilate] as the compound, how does the “toxicity compared with comparison compound” value [2] read?
Answer: The value was “substantially more favourable than that of Compound C”.

Question: And the “analgesic activities compared with comparison compound” value [1]?
Answer: The value was “clearly improved over that of Comparison Compound C”.

Question: What about the Adjuvant arthritis [3] of the same compound?
Answer: The Adjuvant arthritis was 5-10.

Question: And the “adjuvant arthritis test compared with comparison compound” value [3]?
Answer: Its value is “considerably better than that of Comparision Compound C”.

Question: For `CP(C)(=O)COC(=O)c1cccnc1Nc1cccc(C(F)(F)F)c1` [Compound 2d, 3-(dimethylphosphinyl)-methyl 2-(3-trifluoromethylanilino)-nicotinate], which “toxicity compared with comparison compound” value [2] is on record?
Answer: Its value is “more than twice that of Comparision Compouhd D”.

Question: What about the “Carrageenin oedema test / anti-inflammatory activity compared with comparison compound” value [4] of the same compound?
Answer: The value was “practically almost equal to that of the Comparison Compound”.

Question: For `CP(C)(=O)CCCOC(=O)c1ccccc1Nc1ccnc2cc(Cl)ccc12` [Compound 4, 3-(dimethylphosphinyl)-propyl N-(7-chloro-4-quinolyl)-anthranilate], which “Carrageenin oedema test / anti-inflammatory activity compared with comparison compound” value [4] is on record?
Answer: Its value is “show an improvement compared with Compound A”.
